Laboratory results taken from patent US11753407B2, “Compounds for treating spinal muscular atrophy” (PTC Therapeutics, Inc., priority 2012, dated 2023).

Experiments:
[1] = system: Smn protein in SMA patient fibroblast cells (GM03813); test: Smn protein assay in cultured cells (SMN HTRF); type: cell-based, human; settings: SMA patient fibroblast cells, 48 hours; for EC1.5x for Smn protein expression: 7-point concentration curve, SMN HTRF, concentration producing 1.5 times Smn protein vs DMSO vehicle control; for maximum fold (Fold) increase of Smn protein: 7-point concentration data, fold relative to vehicle control
Experimental: The SMN HTRF (homogeneous time resolved fluorescence) assay is used to quantify the level of Smn protein in SMA patient fibroblast cells treated with test compounds.
Protocol. Cells are thawed and cultured in DMEM-10% FBS for 72 hours. Cells are trypsinized, counted and re-suspended to a concentration of 25,000 cells/mL in DMEM-10% FBS. The cell suspension is plated at 5,000 cells per well in a 96 well microtiter plate and incubated for 3 to 5 hours. […] Test compounds are serially diluted 3.16-fold in 100% DMSO to generate a 7-point concentration curve. 1 μL of test compound solution is transferred to cell-containing wells and cells are incubated for 48 hours in a cell culture incubator (37° C., 5% CO2, 100% relative humidity). Triplicate samples are set up for each test compound concentration. After 48 hours, the supernatant is removed from the wells and 25 μL of the RIPA lysis buffer, containing protease inhibitors, is added to the wells and incubated with shaking at room temperature for 1 hour. 25 μL of the diluent is added and then 35 μL of the resulting lysate is transferred to a 384-well plate, where each well contains 5 μL of the antibody solution (1:100 dilution of anti-SMN d2 and anti-SMN kryptate in SMN reconstitution buffer). The plate is centrifuged for 1 minute to bring the solution to the bottom of the wells, then incubated overnight at room temperature. Fluorescence for each well of the plate at 665 nm and 620 nm is measured on an EnVision multilabel plate reader (Perkin-Elmer).
The normalized fluorescence signal is calculated for each sample, Blank and vehicle control well by dividing the signal at 665 nm by the signal at 620 nm. Normalizing the signal accounts for possible fluorescence quenching due to the matrix effect of the lysate. The ΔF value (a measurement of Smn protein abundance as a percent value) for each sample well is calculated by subtracting the normalized average fluorescence for the Blank control wells from the normalized fluorescence for each sample well, then dividing this difference by the normalized average fluorescence for the Blank control wells and multiplying the resulting value by 100. The ΔF value for each sample well represents the Smn protein abundance from test compound-treated samples. The ΔF value for each sample well is divided by the ΔF value for the vehicle control wells to calculate the fold increase in Smn protein abundance relative to the vehicle control.
For compounds of Formula (I) or a form thereof disclosed herein, Table 9 provides the EC1.5× for Smn protein expression that was obtained from the 7-point concentration data generated for each test compound according to the procedure of Biological Example 7. The term “EC1.5× for Smn protein expression” is defined as that concentration of test compound that is effective in producing 1.5 times the amount of Smn protein in an SMA patient fibroblast cell compared to the amount produced from the DMSO vehicle control. An EC1.5× for Smn protein expression between >3 μM and ≤10 μM is indicated by one star (*), an EC1.5× between >1 μM and ≤3 μM is indicated by two stars (**), an EC1.5× between >0.3 μM and ≤1 μM is indicated by three stars (***) and an EC1.5x≤0.3 μM is indicated by four stars (****).
For compounds of Formula (I) or a form thereof disclosed herein, Table 10 provides the maximum fold (Fold) increase of Smn protein that was obtained from the 7-point concentration data generated for each test compound according to the procedure of Biological Example 7. A maximum fold increase of ≤1.2 is indicated by one star (*), a fold increase between >1.2 and ≤1.35 is indicated by two stars (**), a fold increase between >1.35 and ≤1.5 is indicated by three stars (***), a fold increase between >1.5 and ≤1.65 is indicated by four stars (****) and a fold increase >1.65 is indicated by five stars (*****).

[2] = system: SMN2 minigene mRNA (SMN2-A minigene) in HEK293H cells; test: SMN2 minigene mRNA splicing RT-qPCR assay in cultured cells; type: cell-based, human; settings: Homo sapiens, HEK293-H; concentration increasing full length SMN2 mRNA 1.5-fold relative to vehicle-treated cells; HEK293H cells with SMN2-A minigene, 24 hours, 7-point concentration data; read-out: EC1.5x for production of full length SMN2 mRNA
Experimental: The reverse transcription-quantitative PCR-based (RT-qPCR) assay is used to quantify the level of the full length SMN2 minigene mRNA containing SMN2 exon 7 in a HEK293H cell line stably transfected with said minigene and treated with a test compound.
Protocol. HEK293H cells stably transfected with the SMN2-A minigene construct described above (10,000 cells/well) are seeded in 200 μL of cell culture medium (DMEM plus 10% FBS, with 200 μg/mL hygromycin) in 96-well flat-bottom plates and the plate is immediately swirled to ensure proper dispersal of cells, forming an even monolayer of cells. Cells are allowed to attach for at least 4-6 hours. Test compounds are serially diluted 3.16-fold in 100% DMSO to generate a 7-point concentration curve. A solution of test compound (1 μL, 200× in DMSO) is added to each cell-containing well and the plate is incubated for 24 hours in a cell culture incubator (37° C., 5% CO2, 100% relative humidity). 2 replicates are prepared for each test compound concentration. The cells are then lysed in Cells-To-Ct lysis buffer and the lysate is stored at −80° C.
Primer SMN Forward A (SEQ ID NO. 1) hybridizes to a nucleotide sequence in exon 7 (nucleotide 22 to nucleotide 40), primer SMN Reverse A (SEQ ID NO. 2) hybridizes to a nucleotide sequence in the coding sequence of Firefly luciferase, SMN Probe A (SEQ ID NO. 3) hybridizes to a nucleotide sequence in exon 7 (nucleotide 50 to nucleotide 54) and exon 8 (nucleotide 1 to nucleotide 21). The combination of these three oligonucleotides detects only SMN1 or SMN2 minigenes (RT-qPCR) and will not detect endogenous SMN1 or SMN2 genes.
The SMN forward and reverse primers are used at final concentrations of 0.4 μM. The SMN probe is used at a final concentration of 0.15 μM. The GAPDH primers are used at final concentrations of 0.2 μM and the probe at 0.15 μM.
The SMN2-minigene GAPDH mix (15 μL total volume) is prepared by combining 7.5 μL of 2× RT-PCR buffer, 0.4 μL of 25× RT-PCR enzyme mix, 0.75 μL of 20× GAPDH primer-probe mix, 4.0075 μL of water, 2 μL of 10-fold diluted cell lysate, 0.06 μL of 100 μM SMN forward primer, 0.06 μL of 100 μM SMN reverse primer, and […].
PCR is carried out at the following temperatures for the indicated time: Step 1: 48° C. (15 min); Step 2: 95° C. (10 min); Step 3: 95° C. (15 sec); Step 4: 60° C. (1 min); then repeat Steps 3 and 4 for a total of 40 cycles.
Each reaction mixture contains both SMN2-A minigene and GAPDH primers/probe sets (multiplex design), allowing simultaneous measurement of the levels of two transcripts.
Two SMN spliced products are generated from the SMN2 minigene. The first spliced product containing exon 7, corresponding to full length SMN2 mRNA, is referred to herein using the term “SMN2 minigene FL.” The second spliced product lacking exon 7 is referred to herein using the term “SMN2 minigene Δ7.”
The increase of SMN2 minigene FL mRNA relative to that in cells treated with vehicle control is determined from real-time PCR data using a modified ΔΔCt method (as described in Livak and Schmittgen, Methods, 2001, 25:402-8). The amplification efficiency (E) is calculated from the slope of the amplification curve for SMN2 minigene FL and GAPDH individually. The abundances of SMN2 minigene FL and GAPDH are then calculated as (1+E)^−Ct, where Ct is the threshold value for each amplicon. The abundance of SMN2 minigene FL is normalized to GAPDH abundance. The normalized SMN2 minigene FL abundance from test compound-treated samples is then divided by normalized SMN2 minigene FL abundance from vehicle-treated cells to determine the level of SMN2 FL mRNA relative to vehicle control.
For compounds of Formula (I) or a form thereof disclosed herein, Table 4 provides the […] for production of full length SMN2 mRNA that was obtained from the 7-point concentration data generated for each test compound according to the procedure of Biological Example 2. […]

| SMILES | EC1.5x for Smn protein expression [1] | maximum fold (Fold) increase of Smn protein [1] | EC (1.5-fold increase) [2] [µM] |
| --- | --- | --- | --- |
| Cc1cn2nc(-c3cc(=O)n4cc(N5C[C@@H](C)N[C@@H](C)C5)ccc4n3)cc2c(C)n1 [Compound 131, 7-[(3R,5S)-3,5-dimethylpiperazin-1-yl]-2-(4,6-dimethylpyrazolo[1,5-a]pyrazin-2-yl)-4H-pyrido[1,2-a]pyrimidin-4-one] | ** (an EC1.5× between >1 μM and ≤3 μM is indicated by two stars (**)) | *** (a fold increase between >1.35 and ≤1.5 is indicated by three stars (***)) | < 0.1 |
| Cc1cn2nc(-c3cc(=O)n4cc(N5CCCNCC5)ccc4n3)cc2c(C)n1 [Compound 132, 7-(1,4-diazepan-1-yl)-2-(4,6-dimethylpyrazolo[1,5-a]pyrazin-2-yl)-4H-pyrido[1,2-a]pyrimidin-4-one] | **** (an EC1.5x≤0.3 μM is indicated by four stars (****)) | ***** (a fold increase >1.65 is indicated by five stars (*****)) | < 0.1 |
| COc1cc(-c2cc(=O)n3cc(N4CCNCC4)ccc3n2)cc(F)c1OC [Compound 145, 2-(3-fluoro-4,5-dimethoxyphenyl)-7-(piperazin-1-yl)-4H-pyrido[1,2-a]pyrimidin-4-one] |  | * (A maximum fold increase of ≤1.2 is indicated by one star (*)) | 1 to 3 |
| Cc1nc2cc(-c3cc(=O)n4cc(N5CCN[C@@H](C)C5)ccc4n3)ccc2o1 [Compound 156, 2-(2-methyl-1,3-benzoxazol-5-yl)-7-[(3S)-3-methylpiperazin-1-yl]-4H-pyrido[1,2-a]pyrimidin-4-one] |  | *** (a fold increase between >1.35 and ≤1.5 is indicated by three stars (***)) | 0.3 to 1 |
| COc1ccc(-c2cc(=O)n3cc(N4CCNCC4)cc(C)c3n2)cc1OC [Compound 160, 2-(3,4-dimethoxyphenyl)-9-methyl-7-(piperazin-1-yl)-4H-pyrido[1,2-a]pyrimidin-4-one] | *** (an EC1.5× between >0.3 μM and ≤1 μM is indicated by three stars (***)) | *** (a fold increase between >1.35 and ≤1.5 is indicated by three stars (***)) | < 0.1 |
| COc1ccc(-c2cc(=O)n3cc(NC4CCNCC4)ccc3n2)cc1OC [Compound 187, 2-(3,4-dimethoxyphenyl)-7-(piperidin-4-ylamino)-4H-pyrido[1,2-a]pyrimidin-4-one] |  | ** (a fold increase between >1.2 and ≤1.35 is indicated by two stars (**)) | 1 to 3 |
| Cn1cc(-c2cc(=O)n3cc(N4CCNCC4)ccc3n2)cn1 [Compound 192, 2-(1-methyl-1H-pyrazol-4-yl)-7-(piperazin-1-yl)-4H-pyrido[1,2-a]pyrimidin-4-one] | ** (an EC1.5× between >1 μM and ≤3 μM is indicated by two stars (**)) | ***** (a fold increase >1.65 is indicated by five stars (*****)) | 1 to 3 |
| COc1ccc(-c2cc(=O)n3cc(N4CCC(N)CC4)ccc3c2)cc1F [Compound 201, 7-(4-aminopiperidin-1-yl)-2-(3-fluoro-4-methoxyphenyl)-4H-quinolizin-4-one] | *** (an EC1.5× between >0.3 μM and ≤1 μM is indicated by three stars (***)) | *** (a fold increase between >1.35 and ≤1.5 is indicated by three stars (***)) | < 0.1 |
| COc1ccc(-c2cc(=O)n3cc(N4CCC(N(C)C)CC4)ccc3c2)cc1F [Compound 203, 7-[4-(dimethylamino)piperidin-1-yl]-2-(3-fluoro-4-methoxyphenyl)-4H-quinolizin-4-one] |  | * (A maximum fold increase of ≤1.2 is indicated by one star (*)) | 1 to 3 |
| COc1ccc(-c2cc(=O)n3cc(OC4CCN(C)CC4)ccc3n2)cc1OC [Compound 235, 2-(3,4-dimethoxyphenyl)-7-[(1-methylpiperidin-4-yl)oxy]-4H-pyrido[1,2-a]pyrimidin-4-one] | ** (an EC1.5× between >1 μM and ≤3 μM is indicated by two stars (**)) | **** (a fold increase between >1.5 and ≤1.65 is indicated by four stars (****)) | 0.3 to 1 |
